Test results reported in US9125903B2, “Composition useful for the treatment of lipid metabolism disorders” (SIGMA-TAU INDUSTRIE FARMACEUTICHE RIUNITE, S.P.A., priority 2011, dated 2015).

Assays:
Assay type in all cases: in vivo
[1] = tested on: male CD1 mice on high-cholesterol diet; assay: Plasma triglycerides levels in male CD1 mice on high-cholesterol diet; design: % Reduction triglycerides: concentration or dose not given beside the values; settings: for % Reduction triglycerides: VS Cont. (high-cholesterol diet control, group 1); for Triglycerides (mg/dL) Mean values ± S.E.: plasma, oral twice a day for 17 days and one time on day 18, blood 8 h from last treatment, post-absorptive, monacolin K 2, fish oil 200, hexacosanol 25, resveratrol 5, Coenzyme Q10 50, vitamin B6 0.3, vitamin B12 0.25, L-carnitine 20 mg/kg
Experimental: (§1) Male CD 1 mice on a high-cholesterol diet (DP/104, Altromin-Rieper) for about 25 days were used. An acclimatization period of seven days was allowed before the start of the high-cholesterol diet.
(§2) Mice were housed inside cages with stainless steel cover-feed and sterilized and dust-free bedding cobs. Animals were housed under a light-dark cycle, keeping temperature and humidity constant. Parameters of the animal rooms are assessed as follows: 22±2° C. temperature, 55±10% relative humidity, about 15-20 filtered air changes/hour and 12 hours circadian cycle of artificial light (7 a.m., 7 p.m.). The environmental conditions were monitored.
(§3) Mice were divided into groups (10 mice per group) and treated orally (1 mL) twice daily with the compounds of the invention or their combinations at the doses reported in the following:
(§4) monacolin K 2 mg/kg (dissolved in water);
(§5) fish oil 200 mg/kg (dissolved in ethanol);
(§6) Hexacosanol 25 mg/kg (dissolved in ethanol);
(§7) resveratrol 5 mg/kg (dissolved in ethanol);
(§8) Coenzyme Q10 50 mg/kg (dissolved in water);
(§9) Vitamin B6 0.3 mg/kg (dissolved in water);
(§10) Vitamin B12 0.25 mg/kg (dissolved in water);
(§11) L-carnitine 20 mg/kg (dissolved in water).
(§12) At the start of treatment, the body weight of the animals was checked and monitoring of the animals' consumption of water and feed was scheduled.
(§13) On day 18, plasma cholesterol, triglyceride and HDL cholesterol were evaluated. […]

[2] = tested on: male CD1 mice on high-cholesterol diet; assay: Plasma total cholesterol levels in male CD1 mice on high-cholesterol diet; design: % Reduction total cholesterol: concentration or dose not given beside the values; settings: for % Reduction total cholesterol: VS Cont. (high-cholesterol diet control, group 1); for Total-cholesterol (mg/dL) Mean values ± S.E.: plasma, oral twice a day for 17 days and one time on day 18, blood 8 h from last treatment, post-absorptive, monacolin K 2, fish oil 200, hexacosanol 25, resveratrol 5, Coenzyme Q10 50, vitamin B6 0.3, vitamin B12 0.25, L-carnitine 20 mg/kg
Experimental: as §1, §2, §3, §4, §5, §6, §7, §8, §9, §10, §11, §12, §13

[3] = tested on: male CD1 mice on high-cholesterol diet; assay: Plasma HDL-cholesterol levels in male CD1 mice on high-cholesterol diet; settings: for % of increase HDL-cholesterol: VS Cont. (high-cholesterol diet control, group 1); for HDL-cholesterol: plasma, mean values ± S.E., oral twice a day for 17 days and one time on day 18, blood 8 h from last treatment, post-absorptive, monacolin K 2, fish oil 200, hexacosanol 25, resveratrol 5, Coenzyme Q10 50, vitamin B6 0.3, vitamin B12 0.25, L-carnitine 20 mg/kg
Experimental: as §1, §2, §3, §4, §5, §6, §7, §8, §9, §10, §11, §12, §13

Compound	% Reduction triglycerides [1] [%]	Triglycerides (mg/dL) Mean values ± S.E. [1] [mg/dL]	% Reduction total cholesterol [2] [%]	Total-cholesterol (mg/dL) Mean values ± S.E. [2] [mg/dL]	% of increase HDL-cholesterol [3]	HDL-cholesterol [3] [mg/dL]
COC1=C(OC)C(=O)C(C/C=C(\C)CC/C=C(\C)CC/C=C(\C)CC/C=C(\C)CC/C=C(\C)CC/C=C(\C)CC/C=C(\C)CC/C=C(\C)CC/C=C(\C)CCC=C(C)C)=C(C)C1=O [Coenzyme Q10]	−3	196.4 ± 22.1	−3	355.8 ± 25.2	+4%	23.9 ± 2.2
CCCCCCCCCCCCCCCCCCCCCCCCCCO [Hexacosanol]	−15	172.1 ± 12.3	−16	307.2 ± 23.9	+15%	26.4 ± 2.0
C[N+](C)(C)C[C@H](O)CC(=O)[O-] [L-carnitine]	−5	192.3 ± 16.4	−12	322.8 ± 21.1	+21%	27.8 ± 2.1
CC[C@H](C)C(=O)O[C@H]1C[C@@H](C)C=C2C=C[C@H](C)[C@H](CC[C@@H]3C[C@@H](O)CC(=O)O3)[C@H]21 [Monacolin K, monacolin K]	−8	186.3 ± 20.8	−21	289.7 ± 21.0	+10%	25.3 ± 2.1
Oc1ccc(/C=C/c2cc(O)cc(O)c2)cc1 [Resveratrol, trans-3,4′,5-trihydroxystilbene]	−22	157.9 ± 12.4	−4	352.1 ± 19.1	+3%	23.7 ± 1.9
Cc1ncc(CO)c(CO)c1O.Cl [Vitamin B6]	−4	194.3 ± 16.7	−5	348.5 ± 18.5	+5%	24.1 ± 2.5
cobalamin [Vitamin B12]	−4	194.5 ± 17.4	−4	352.1 ± 20.2	+5%	24.3 ± 23
